Data on 4 molecules can be found in PMC7674269 (Biochemistry, 2020).

Test [1] has as its target T1, sortilin (Homo sapiens, UniProt Q99523).
T1 sequence (Q99523 78-755): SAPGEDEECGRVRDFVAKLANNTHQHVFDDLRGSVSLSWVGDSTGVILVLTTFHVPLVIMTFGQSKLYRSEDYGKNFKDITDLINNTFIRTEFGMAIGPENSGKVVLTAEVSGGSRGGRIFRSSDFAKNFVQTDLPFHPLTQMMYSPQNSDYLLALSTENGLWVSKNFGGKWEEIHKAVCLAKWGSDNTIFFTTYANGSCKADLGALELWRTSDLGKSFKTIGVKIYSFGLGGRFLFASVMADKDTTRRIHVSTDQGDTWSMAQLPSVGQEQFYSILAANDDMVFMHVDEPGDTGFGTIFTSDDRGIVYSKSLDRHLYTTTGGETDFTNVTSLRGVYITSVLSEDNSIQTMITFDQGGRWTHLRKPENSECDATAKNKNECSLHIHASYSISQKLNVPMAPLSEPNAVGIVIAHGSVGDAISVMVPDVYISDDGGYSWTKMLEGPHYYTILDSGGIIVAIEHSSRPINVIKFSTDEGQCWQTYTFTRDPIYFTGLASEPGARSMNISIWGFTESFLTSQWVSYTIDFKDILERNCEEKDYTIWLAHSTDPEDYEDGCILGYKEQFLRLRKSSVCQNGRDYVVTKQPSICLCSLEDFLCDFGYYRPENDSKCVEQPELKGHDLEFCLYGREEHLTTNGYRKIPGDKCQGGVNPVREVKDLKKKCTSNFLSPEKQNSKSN
As to the kind of experiment: SPR, immobilised sortilin, CM5 chip. Format: binding.

Test [2] deals with T2, Neurotensin C-terminal fragment (Ct-NT) C-terminal 4 residues (Homo sapiens, UniProt P30990).
T2 chain: PYIL
Put plainly: SPR.

The target in test [3] is T2, Neurotensin C-terminal fragment (Ct-NT) …. Put plainly: SPR competition with PIP3 nanodiscs.

Consider `CN1CCC[C@H]1C(=O)Nc1cccc(NC(=O)CCc2ccccc2)c1` [cpd984, (2S)-1-methylN-3-[(3-phenypropanoyl)-amino]phenylpyrrolidine-2-carboxamied], for which, in test [1], binding was characterised by a dissociation constant (Kd) of 118 ± 38 nM.

Take `CCCCCCCC(=O)OC[C@H](COP(=O)(O)O[C@H]1[C@H](O)[C@@H](OP(=O)(O)O)[C@H](OP(=O)(O)O)[C@@H](OP(=O)(O)O)[C@H]1O)OC(=O)CCCCCCC` [diC8-PIP3]: in test [1], the Kd was determined as 4200 ± 400 nM.

`C[C@@H](NC(=O)c1ccccc1NCC(=O)O)c1ccccc1` [cpd541] had a Kd in test [1] of 6900 ± 1100 nM.

B1: Sortilin luminal beta-propeller domain (protein)
chain: NNTHQHVFDDLRGSVSLSWVGDSTGVILVLTTFHVPLVIMTFGQSKLYRSEDYGKNFKDITDLINNTFIRTEFGMAIGPENSGKVVLTAEVSGGSRGGRIFRSSDFAKNFVQTDLPFHPLTQMMYSPQNSDYLLALSTENGLWVSKNFGGKWEEIHKAVCLAKWGSDNTIFFTTYANGSCKADLGALELWRTSDLGKSFKTIGVKIYSFGLGGRFLFASVMADKDTTRRIHVSTDQGDTWSMAQLPSVGQEQFYSILAANDDMVFMHVDEPGDTGFGTIFTSDDRGIVYSKSLDRHLYTTTGGETDFTNVTSLRGVYITSVLSEDNSIQTMITFDQGGRWTHLRKPENSECDATAKNKNECSLHIHASYSISQKLNVPMAPLSEPNAVGIVIAHGSVGDAISVMVPDVYISDDGGYSWTKMLEGPHYYTILDSGGIIVAIEHSSRPINVIKFSTDEGQCWQTYTFTRDPIYFTGLASEPGARSMNISIWGFTESFLTSQWVSYTIDF
As for B1, the Kd in test [2] was about 120 nM. In test [3], the half-inhibitory concentration (IC50) came out at 157 nM.
